IC50, MIC and PD50 data for ten compounds are collected here from patent US9592221B2, “Antibacterial agents: aryl myxopyronin derivatives” (priority 2012, dated 2017).

The target in experiment [1] is E. coli RNA polymerase σ^70 holoenzyme (Escherichia coli, UniProt P0A8T7+P0A8V2). In words: Fluorescence-detected RNA polymerase assay, E. coli RNA polymerase. In kind it is biochemical. The note with it: read-out: IC50 E. coli RNAP.
Experiment [2] relates to Staphylococcus aureus ATCC 12600. In words: MIC, spiral gradient endpoint assay, S. aureus ATCC 12600. In kind it is cell-based. As to conditions: ATCC12600; Staphylococcus aureus ATCC 12600.
In experiment [3] the test system is methicillin-resistant Staphylococcus aureus (MRSA) strain BAA-1707 (USA-400; MW2). In words: MIC, spiral gradient endpoint assay, MRSA BAA-1707. The experiment is classed as cell-based. The note with it: Staphylococcus aureus; read-out: MIC S. aureus MRSA BAA-1707.
Experiment [4] deals with methicillin-resistant Staphylococcus aureus (MRSA) strain BAA-1717 (USA-300). Nature of the experiment: MIC, spiral gradient endpoint assay, MRSA BAA-1717. The experiment is classed as cell-based. The note with it: Staphylococcus aureus; read-out: MIC S. aureus MRSA BAA-1717.
The subject of experiment [5] is rifampin-resistant Staphylococcus aureus (RRSA) strain ATCC 12600-Rif (H526N). Nature of the experiment: MIC, spiral gradient endpoint assay, RRSA 12600-Rif. In kind it is cell-based. The note with it: Staphylococcus aureus, ATCC12600; read-out: MIC S. aureus RRSA 12600-Rif.
For experiment [6], the system named is Acinetobacter baumannii ATCC 19606. In words: MIC, spiral gradient endpoint assay, A. baumannii. In kind it is cell-based. The note with it: ATCC19606; Acinetobacter baumannii ATCC 19606.
Experiment [7] relates to Escherichia coli D21f2tolC. In words: MIC, spiral gradient endpoint assay, E. coli D21f2tolC. In kind it is cell-based. The note with it: Escherichia coli, D21F2TOLC, read-out: MIC E. coli D21f2toIC.
Experiment [8] has as its system Mycobacterium tuberculosis H37Rv. Nature of the experiment: MIC, microplate Alamar Blue assay, M. tuberculosis. In kind it is cell-based. (In general: Alamar Blue is a resazurin reagent that responds to reducing activity.)
The subject of experiment [9] is Bacillus anthracis Vollum 1b. In words: microbe, parasite or virus in culture. In kind it is cell-based. The note with it: Bacillus anthracis, VOLLUM1B, read-out: MIC B. anthracis Vollum-1b.
The subject of experiment [10] is Francisella tularensis SCHU4. In words: microbe, parasite or virus in culture. In kind it is cell-based. The note with it: Francisella tularensis, SCHU4, read-out: MIC F. tularensis SCHU4.
In a further experiment the test system is Yersinia pestis C092. In words: microbe, parasite or virus in culture. In kind it is cell-based. As to conditions: Yersinia pestis, C092, read-out: MIC Y. pestis C092.
The next experiment concerns Burkholderia mallei CHN7. Nature of the experiment: microbe, parasite or virus in culture. In kind it is cell-based. As to conditions: Burkholderia mallei, CHN7, read-out: MIC B. mallei CHN7.
The subject of experiment [11] is Burkholderia pseudomallei Human/Blood/OH/US/1994. Nature of the experiment: microbe, parasite or virus in culture. In kind it is cell-based. As to conditions: Burkholderia pseudomallei, read-out: MIC B. pseudomallei Human/Blood/OH.
A further experiment has as its system Brucella melitensis 16M. Nature of the experiment: microbe, parasite or virus in culture. In kind it is cell-based. As to conditions: Brucella melitensis, 16M, read-out: MIC B. melitensis 16M.
The test system of experiment [12] is methicillin-resistant Staphylococcus aureus (MRSA) strain BAA-1707 (USA-400, MW2). In words: Antibacterial efficacy in mouse model of Staphylococcus aureus systemic infection (peritonitis model). In kind it is in vivo, Swiss Webster mice. The note with it: mice.
The target in experiment [13] is S. aureus RNA polymerase core enzyme, S. aureus σ^A (Staphylococcus aureus, UniProt P47768+Q2G0N5). In words: Fluorescence-detected RNA polymerase assay, S. aureus RNA polymerase. In kind it is biochemical. The note with it: read-out: IC50 S. aureus RNAP.
Experiment [14] deals with M. tuberculosis RNA polymerase core enzyme, M. tuberculosis σ^A (Mycobacterium tuberculosis, UniProt P9WGY7+P9WGY9). Nature of the experiment: Fluorescence-detected RNA polymerase assay, M. tuberculosis RNA polymerase. The experiment is classed as biochemical. The note with it: read-out: IC50 M. tuberculosis RNAP.
The subject of experiment [15] is linezolid-resistant Staphylococcus aureus (LRSA) strain NRS 120. Nature of the experiment: MIC, spiral gradient endpoint assay, LRSA NRS 120. The note with it: Staphylococcus aureus, NRS120; read-out: MIC S. aureus LRSA NRS120. In kind it is cell-based.
For experiment [16], the system named is vancomycin-intermediate Staphylococcus aureus (VISA) strain NRS 1. In words: MIC, spiral gradient endpoint assay, VISA NRS 1. In kind it is cell-based. The note with it: Staphylococcus aureus; read-out: MIC S. aureus VISA NRS1.
[17] abbreviates: intravenous administration 0 h post-infection.

As a reminder, the IC50 is the concentration that gives 50% inhibition.

M. tuberculosis RNA polymerase core enzyme, M. tuberculosis σ^A, sequence (P9WGI1 whole entry): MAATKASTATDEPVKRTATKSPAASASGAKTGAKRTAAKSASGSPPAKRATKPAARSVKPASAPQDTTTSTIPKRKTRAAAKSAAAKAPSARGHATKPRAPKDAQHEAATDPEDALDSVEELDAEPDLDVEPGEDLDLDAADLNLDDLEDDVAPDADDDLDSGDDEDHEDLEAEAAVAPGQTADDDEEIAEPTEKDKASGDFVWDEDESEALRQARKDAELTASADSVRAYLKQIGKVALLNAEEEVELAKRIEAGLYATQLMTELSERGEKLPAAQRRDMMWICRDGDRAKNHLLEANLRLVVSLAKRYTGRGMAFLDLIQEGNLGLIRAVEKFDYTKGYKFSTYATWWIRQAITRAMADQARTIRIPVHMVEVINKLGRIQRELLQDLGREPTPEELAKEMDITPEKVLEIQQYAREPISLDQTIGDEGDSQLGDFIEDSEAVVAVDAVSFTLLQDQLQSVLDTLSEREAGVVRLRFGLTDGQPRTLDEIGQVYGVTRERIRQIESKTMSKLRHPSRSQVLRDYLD
M. tuberculosis RNA polymerase core enzyme, M. tuberculosis σ^A, sequence (P9WGY5 whole entry, further chain): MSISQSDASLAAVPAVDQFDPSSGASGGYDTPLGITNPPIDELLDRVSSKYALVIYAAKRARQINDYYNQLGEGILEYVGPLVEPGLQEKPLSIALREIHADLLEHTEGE
M. tuberculosis RNA polymerase core enzyme, M. tuberculosis σ^A, sequence (P9WGY7 whole entry): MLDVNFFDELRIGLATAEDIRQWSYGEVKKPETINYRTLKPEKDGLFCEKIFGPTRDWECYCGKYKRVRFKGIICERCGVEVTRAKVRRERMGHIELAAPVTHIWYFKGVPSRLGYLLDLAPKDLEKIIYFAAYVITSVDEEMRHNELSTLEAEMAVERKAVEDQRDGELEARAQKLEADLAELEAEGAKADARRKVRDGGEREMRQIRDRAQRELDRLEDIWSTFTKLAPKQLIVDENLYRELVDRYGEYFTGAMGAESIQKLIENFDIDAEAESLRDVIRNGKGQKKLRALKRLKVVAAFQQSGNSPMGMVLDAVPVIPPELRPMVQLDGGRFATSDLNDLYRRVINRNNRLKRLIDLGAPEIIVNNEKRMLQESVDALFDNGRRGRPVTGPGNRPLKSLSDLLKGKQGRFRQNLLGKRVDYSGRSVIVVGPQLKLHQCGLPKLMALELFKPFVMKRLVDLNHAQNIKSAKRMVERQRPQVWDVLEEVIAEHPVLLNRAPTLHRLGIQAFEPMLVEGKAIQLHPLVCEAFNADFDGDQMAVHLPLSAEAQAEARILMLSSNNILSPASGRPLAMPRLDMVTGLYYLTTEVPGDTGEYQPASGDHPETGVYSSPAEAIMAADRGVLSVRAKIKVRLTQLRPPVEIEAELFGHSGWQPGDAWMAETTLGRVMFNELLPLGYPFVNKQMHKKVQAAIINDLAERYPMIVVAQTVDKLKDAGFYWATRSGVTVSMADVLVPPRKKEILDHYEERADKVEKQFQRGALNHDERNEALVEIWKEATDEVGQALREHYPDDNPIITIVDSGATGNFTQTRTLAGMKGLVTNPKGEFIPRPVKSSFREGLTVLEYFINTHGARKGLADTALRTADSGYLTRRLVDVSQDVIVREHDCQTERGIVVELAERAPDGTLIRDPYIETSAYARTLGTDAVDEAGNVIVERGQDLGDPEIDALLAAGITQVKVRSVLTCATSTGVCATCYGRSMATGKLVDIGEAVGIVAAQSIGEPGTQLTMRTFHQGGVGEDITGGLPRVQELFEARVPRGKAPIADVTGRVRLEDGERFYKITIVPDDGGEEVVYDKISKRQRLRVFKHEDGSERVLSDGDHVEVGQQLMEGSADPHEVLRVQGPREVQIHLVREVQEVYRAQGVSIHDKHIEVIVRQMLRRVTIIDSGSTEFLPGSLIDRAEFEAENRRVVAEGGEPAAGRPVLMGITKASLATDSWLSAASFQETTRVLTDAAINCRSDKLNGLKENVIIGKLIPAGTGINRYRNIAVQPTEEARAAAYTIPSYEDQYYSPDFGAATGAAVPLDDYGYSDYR
M. tuberculosis RNA polymerase core enzyme, M. tuberculosis σ^A, sequence (P9WGY9 whole entry): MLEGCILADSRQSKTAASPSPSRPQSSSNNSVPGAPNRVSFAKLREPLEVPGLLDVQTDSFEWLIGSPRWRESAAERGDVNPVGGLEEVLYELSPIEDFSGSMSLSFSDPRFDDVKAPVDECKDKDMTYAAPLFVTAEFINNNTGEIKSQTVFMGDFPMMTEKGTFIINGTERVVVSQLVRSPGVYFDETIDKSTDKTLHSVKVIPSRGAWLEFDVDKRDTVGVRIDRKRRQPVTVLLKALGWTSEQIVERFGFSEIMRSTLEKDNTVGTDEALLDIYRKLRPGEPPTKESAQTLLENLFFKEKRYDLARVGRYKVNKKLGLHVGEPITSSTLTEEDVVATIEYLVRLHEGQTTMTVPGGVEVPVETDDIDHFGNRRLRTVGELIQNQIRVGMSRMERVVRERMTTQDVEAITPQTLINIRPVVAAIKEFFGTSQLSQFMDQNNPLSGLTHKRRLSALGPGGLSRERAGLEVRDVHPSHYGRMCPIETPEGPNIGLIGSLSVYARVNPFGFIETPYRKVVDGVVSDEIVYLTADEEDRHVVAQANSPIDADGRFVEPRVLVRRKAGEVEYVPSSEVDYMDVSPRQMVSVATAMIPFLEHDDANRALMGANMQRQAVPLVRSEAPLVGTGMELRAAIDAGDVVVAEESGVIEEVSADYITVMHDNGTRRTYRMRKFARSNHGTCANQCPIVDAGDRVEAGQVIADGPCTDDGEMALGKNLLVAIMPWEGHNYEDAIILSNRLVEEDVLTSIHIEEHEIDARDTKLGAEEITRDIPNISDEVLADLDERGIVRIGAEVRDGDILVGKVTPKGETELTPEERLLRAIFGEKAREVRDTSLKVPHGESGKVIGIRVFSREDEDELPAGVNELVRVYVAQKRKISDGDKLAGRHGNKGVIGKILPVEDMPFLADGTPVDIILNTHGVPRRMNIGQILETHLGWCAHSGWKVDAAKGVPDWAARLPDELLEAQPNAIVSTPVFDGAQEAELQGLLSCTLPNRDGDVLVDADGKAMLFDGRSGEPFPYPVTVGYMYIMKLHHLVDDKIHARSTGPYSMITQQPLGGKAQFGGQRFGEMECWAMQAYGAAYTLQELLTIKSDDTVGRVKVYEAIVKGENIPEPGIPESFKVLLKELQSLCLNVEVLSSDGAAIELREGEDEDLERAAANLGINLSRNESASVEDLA
M. tuberculosis RNA polymerase core enzyme, M. tuberculosis σ^A, sequence (P9WGZ1 whole entry, further chain): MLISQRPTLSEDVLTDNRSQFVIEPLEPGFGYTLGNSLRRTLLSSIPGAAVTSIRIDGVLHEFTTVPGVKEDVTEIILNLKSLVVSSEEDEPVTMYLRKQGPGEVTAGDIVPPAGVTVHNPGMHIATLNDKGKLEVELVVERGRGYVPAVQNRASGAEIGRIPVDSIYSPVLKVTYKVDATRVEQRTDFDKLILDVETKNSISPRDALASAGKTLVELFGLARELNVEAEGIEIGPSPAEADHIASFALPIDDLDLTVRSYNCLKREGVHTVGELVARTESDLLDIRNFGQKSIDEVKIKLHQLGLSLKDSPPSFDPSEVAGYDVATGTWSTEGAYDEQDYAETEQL

On to `CCCCc1ccc(C=C(C)C(=O)c2c(O)cc(C(C)CC/C=C/NC(=O)OC)oc2=O)cc1` (mixture of isomers) [APY41, methyl (E)-5-(3-((E/Z)-3-(4-butylphenyl)-2-methylacryloyl)-4-hydroxy-2-oxo-2H-pyran-6-yl)hex-1-enylcarbamate], for which the IC50 in experiment [1] came to 8 nM. The MIC was 0.8 µg/mL in experiment [2]; 0.6 µg/mL in experiment [3]; 0.6 µg/mL in experiment [4]; 0.9 µg/mL in experiment [5]; above 40 µg/mL in experiment [6]; below 0.2 µg/mL in experiment [7]. For the same compound, the MIC in [8] was 3 µg/mL; in experiment [9], 2 µg/mL; in experiment [10], 6 µg/mL; in the experiment with Yersinia pestis C092 it was 30 µg/mL; in the experiment with Burkholderia mallei CHN7 it was 6 µg/mL; in experiment [11], 10 µg/mL. The MIC in the experiment with Brucella melitensis 16M worked out at 0.8 µg/mL.
`COC(=O)N/C=C/CCC(C)c1cc(O)c(C(=O)C(C)=Cc2ccc(CC(C)C)s2)c(=O)o1` (mixture of isomers) [APY60, methyl (E)-5-(4-hydroxy-5-((E/Z)-3-(5-isobutylthiophen-2-yl)-2-methylacryloyl)-6-oxo-6H-pyran-2-yl)hex-1-enylcarbamate]: the IC50 in experiment [1] was 10 nM. Further, the MIC in experiment [2] is 0.4 µg/mL; in experiment [3] it was 0.4 µg/mL; in experiment [4], 0.5 µg/mL; in experiment [5], 0.7 µg/mL; in experiment [6], 9 µg/mL; in experiment [7] it was 0.2 µg/mL. The MIC turned out to be 10 µg/mL in [8]; 3 µg/mL in experiment [9]; 10 µg/mL in [10]; 30 µg/mL in the experiment on Burkholderia mallei CHN7; 30 µg/mL in [11]; 6 µg/mL with Brucella melitensis 16M. The same compound showed a PD50 in [12] (setting [17]) of 20 mg/kg.
Take `COC(=O)N/C=C/CCC(C)c1cc(O)c(C(=O)C(C)=Cc2ccc(CCCC(F)(F)F)s2)c(=O)o1` (mixture of isomers) [APY81, methyl ((1E)-5-(4-hydroxy-3-(2-methyl-3-(5-(4,4,4-trifluorobutyl)thiophen-2-yl)acryloyl)-2-oxo-2H-pyran-6-yl)hex-1-en-1-yl)carbamate]: the IC50 is 10 nM in experiment [1], 30 nM in experiment [13] and 50 nM in experiment [14]. For the same compound, the MIC in experiment [2] stood at 0.4 µg/mL; in experiment [3], 0.5 µg/mL; in experiment [4] it was 0.9 µg/mL; in experiment [5] it was 0.8 µg/mL; in experiment [6], 20 µg/mL; in experiment [7] it was 0.08 µg/mL. For the same compound, the MIC was found to be 10 µg/mL in experiment [8]; 2 µg/mL in experiment [9]; 30 µg/mL in [10]; 10 µg/mL in the experiment with Burkholderia mallei CHN7; 10 µg/mL in experiment [11]; 2 µg/mL in the experiment on Brucella melitensis 16M.
As for `COC(=O)N/C=C/CCCc1cc(O)c(C(=O)C(C)=Cc2ccc(CCCC(F)(F)F)s2)c(=O)o1` (mixture of isomers) [APY90, methyl ((1E)-5-(4-hydroxy-3-(2-methyl-3-(5-(4,4,4-trifluorobutyl)thiophen-2-yl)acryloyl)-2-oxo-2H-pyran-6-yl)pent-1-en-1-yl)carbamate], the IC50 in experiment [1] is 30 nM; in [13], 800 nM; in experiment [14], 300 nM. Moreover, the MIC in experiment [2] was found to be 0.9 µg/mL; in [3], 2 µg/mL; in [4], 2 µg/mL; in [5], 2 µg/mL; in experiment [6], 10 µg/mL; in experiment [7], 0.07 µg/mL. The same compound displayed an MIC in [8] of 10 µg/mL.
`COC(=O)N/C=C/CCCc1cc(O)c(C(=O)C(C)=Cc2ccc(CCC(C)C)s2)c(=O)o1` (mixture of isomers) [APY91, methyl ((1E)-5-(4-hydroxy-3-(3-(5-isopentylthiophen-2-yl)-2-methylacryloyl)-2-oxo-2H-pyran-6-yl)pent-1-en-1-yl)carbamate]: the IC50 is 20 nM in [1], 600 nM in [13] and 400 nM in [14]. Also, the MIC in experiment [2] was 0.7 µg/mL; in experiment [3] it was 2 µg/mL; in [4], 2 µg/mL; in experiment [5] it was 2 µg/mL; in [6], 9 µg/mL; in [7], 0.08 µg/mL. This compound also yielded an MIC in experiment [8] of 50 µg/mL.
As for `COC(=O)N/C=C/CCC(C)c1cc(O)c(C(=O)C(C)=Cc2ccc(CCC3CC3)s2)c(=O)o1` (mixture of isomers) [APY95, methyl ((1E)-5-(3-(3-(5-(2-cyclopropylethyl)thiophen-2-yl)-2-methylacryloyl)-4-hydroxy-2-oxo-2H-pyran-6-yl)hex-1-en-1-yl)carbamate], the values for the 50% inhibitory concentration (IC50) in experiment [1] and in [14] were 5 nM and 50 nM, respectively. Also, the MIC came to 0.8 µg/mL in [2]; 0.3 µg/mL in [3]; 0.4 µg/mL in experiment [4]; 0.5 µg/mL in [5]; 10 µg/mL in [6]; 0.1 µg/mL in experiment [7]. In experiment [8], the MIC is 10 µg/mL.
`COC(=O)N/C=C/CCC(C)c1cc(O)c(C(=O)C(C)=Cc2ccc(OC(C)C)s2)c(=O)o1` (mixture of isomers) [APY107, methyl ((1E)-5-(4-hydroxy-3-(3-(5-isopropoxythiophen-2-yl)-2-methylacryloyl)-2-oxo-2H-pyran-6-yl)hex-1-en-1-yl)carbamate]: the figures for the half-maximal inhibitory concentration (IC50) in [1] and in experiment [14] were 20 nM and 400 nM, respectively. Besides, the MIC in experiment [2] is 2 µg/mL; in experiment [3] it was 2 µg/mL; in experiment [4], 2 µg/mL; in experiment [5] it was 2 µg/mL; in experiment [6], above 40 µg/mL; in [7] it was 0.1 µg/mL. In addition, the MIC in experiment [8] stood at 10 µg/mL.
Take `CCOCc1ccc(C=C(C)C(=O)c2c(O)cc(C(C)CC/C=C/NC(=O)OC)oc2=O)s1` (mixture of isomers) [APY108, methyl ((1E)-5-(3-(3-(5-(ethoxymethyl)thiophen-2-yl)-2-methylacryloyl)-4-hydroxy-2-oxo-2H-pyran-6-yl)hex-1-en-1-yl)carbamate]: the IC50 in [1] came out at 300 nM; in experiment [14] it was 700 nM. Moreover, the MIC is 10 µg/mL in experiment [2]; 20 µg/mL in experiment [3]; 20 µg/mL in experiment [4]; 20 µg/mL in experiment [5]; above 40 µg/mL in experiment [6]; 0.4 µg/mL in [7]. This compound also registered an MIC in experiment [8] of 30 µg/mL.
On to `CCCOCc1ccc(C=C(C)C(=O)c2c(O)cc(C(C)CC/C=C/NC(=O)OC)oc2=O)s1` (mixture of isomers) [APY109, methyl ((1E)-5-(4-hydroxy-3-(2-methyl-3-(5-(propoxymethyl)thiophen-2-yl)acryloyl)-2-oxo-2H-pyran-6-yl)hex-1-en-1-yl)carbamate], for which the results for the IC50 in experiment [1] and in [14] were 80 nM and 800 nM, respectively. Also, the MIC in experiment [2] is 3 µg/mL; in experiment [3] it was 7 µg/mL; in experiment [4] it was 7 µg/mL; in experiment [5], 7 µg/mL; in experiment [6], above 40 µg/mL; in [7], 0.2 µg/mL. Moreover, in experiment [8], the MIC is 30 µg/mL.
On to `COC(=O)N/C=C/CCC(C)c1cc(O)c(C(=O)C(C)=Cc2ccc(OCC(F)(F)F)s2)c(=O)o1` (mixture of isomers) [APY116, methyl ((1E)-5-(4-hydroxy-3-(2-methyl-3-(5-(2,2,2-trifluoroethoxy)thiophen-2-yl)acryloyl)-2-oxo-2H-pyran-6-yl)hex-1-en-1-yl)carbamate], for which, in [1], the IC50 turned out to be 30 nM. Besides, the MIC in experiment [2] stood at 1 µg/mL; in experiment [3], 2 µg/mL; in [4], 2 µg/mL; in experiment [5], 2 µg/mL; in experiment [15], 0.8 µg/mL; in experiment [16], 0.7 µg/mL. The results for the MIC in [6], in [7] and in experiment [8] were above 40 µg/mL, 0.2 µg/mL and 6 µg/mL, respectively. The PD50 in experiment [12] (setting [17]) stood at 20 mg/kg; in [12] (oral administration 1 h pre-infection), 50 mg/kg.
